Results from patent publication US7358249B2, “Heterocyclic compounds having inhibitory activity against HIV integrase” (Shionogi & Co., Ltd., priority 2002, dated 2008).
Values joined by “and” are separate entries in the source; they are usually repeats but may differ in a detail not shown here. Identical values can stand only once.

Row | melting point | Compound
1 | 174 to 175 °C | CCOCCNC(=O)c1cc(C(=O)OC)c(O)c2ncc(Cc3ccc(F)cc3)cc12
2 | 99 to 100 °C | COC(=O)c1cc(C(=O)N(C)CC(=O)N(C)C)c2cc(Cc3ccc(F)cc3)cnc2c1O
3 | 208 to 209 °C | COC(=O)c1cc(C(=O)NNC(C)=O)c2cc(Cc3ccc(F)cc3)cnc2c1O
4 | 184 to 185 °C | CCOC(=O)CNNC(=O)c1cc(C(=O)OC)c(O)c2ncc(Cc3ccc(F)cc3)cc12
5 | 249 to 250 °C | COC(=O)c1cc(C(=O)NNC=O)c2cc(Cc3ccc(F)cc3)cnc2c1O
6 | 233 to 234 °C | COC(=O)c1cc(C(=O)NN2CCCCC2)c2cc(Cc3ccc(F)cc3)cnc2c1O
7 | 200 to 201 °C | CONC(=O)c1cc(C(=O)OC)c(O)c2ncc(Cc3ccc(F)cc3)cc12
8 | 221 to 222 °C | COC(=O)c1cc(C(=O)NC2CCCC2)c2cc(Cc3ccc(F)cc3)cnc2c1O
9 | 251 to 253 °C | COC(=O)c1cc(C(=O)NCCNC(C)=O)c2cc(Cc3ccc(F)cc3)cnc2c1O
10 | 166 to 168 °C | COC(=O)c1cc(C(C)=O)c2cc(Cc3ccc(F)cc3)cnc2c1O
11 | 198 to 199 °C | COC(=O)c1cc(C(=O)NCCC2CCOCC2)c2cc(Cc3ccc(F)cc3)cnc2c1O
12 | 235 to 237 °C | COC(=O)c1cc(C=CC(=O)O)c2cc(Cc3ccc(F)cc3)cnc2c1O
13 | 178 to 179 °C | COC(=O)c1cc(C(=O)NCC(C)C)c2cc(Cc3ccc(F)cc3)cnc2c1O
14 | 184 to 185 °C | COC(=O)c1cc(C(=O)NNC(=O)c2cccnc2)c2cc(Cc3ccc(F)cc3)cnc2c1O
15 | 168 to 170 °C | COC(=O)C(=O)Nc1cc(C(=O)OC)c(O)c2ncc(Cc3ccc(F)cc3)cc12
16 | 238 to 239 °C | CCOC(=O)c1cc(C(=O)O)c2cc(Cc3ccc(F)cc3)cnc2c1O
17 | 235 to 238 °C | COC(=O)c1cc(C(=O)N2CCC(C(N)=O)CC2)c2cc(Cc3ccc(F)cc3)cnc2c1O
18 | 188 to 189 °C | CNNC(=O)c1cc(C(=O)OC)c(O)c2ncc(Cc3ccc(F)cc3)cc12
19 | 164 to 166 °C | COC(=O)c1cc(C(=O)NNC(=O)c2ccccn2)c2cc(Cc3ccc(F)cc3)cnc2c1O
20 | 162 to 163 °C | COC(=O)c1cc(C(=O)NCCOCCO)c2cc(Cc3ccc(F)cc3)cnc2c1O
21 | 209 to 210 °C | COC(=O)CNC(=O)c1cc(C(=O)OC)c(O)c2ncc(Cc3ccc(F)cc3)cc12
22 | 241 to 242 °C | COC(=O)c1cc(C(=O)Nc2ccncn2)c2cc(Cc3ccc(F)cc3)cnc2c1O
23 | 198 to 199 °C | COC(=O)c1cc(C(=O)NCCN2CCOCC2)c2cc(Cc3ccc(F)cc3)cnc2c1O
24 | 152 °C | COC(=O)c1cc(Br)c2cc(Cc3ccc(F)cc3)cnc2c1O

Row | melting point | Compound
25 | 246 to 247 °C | COC(=O)c1cc(C(=O)NC2CCOCC2)c2cc(Cc3ccc(F)cc3)cnc2c1O
26 | 229 to 230 °C | COC(=O)c1cc(C(=O)NCCN)c2cc(Cc3ccc(F)cc3)cnc2c1O
27 | 280 to 282 °C | CCNC(=O)Nc1cc(C(=O)OC)c(O)c2ncc(Cc3ccc(F)cc3)cc12
28 | 115 to 116 °C | COC(=O)c1cc(C(=O)NCCN(C)C)c2cc(Cc3ccc(F)cc3)cnc2c1O
29 | 216 to 217 °C | COC(=O)c1cc(C(=O)NCCF)c2cc(Cc3ccc(F)cc3)cnc2c1O
30 | 232 to 233 °C | COC(=O)c1cc(C(=O)NC2CCNCC2)c2cc(Cc3ccc(F)cc3)cnc2c1O
31 | > 250 °C | COC(=O)c1cc(C(=O)NN2CCOCC2)c2cc(Cc3ccc(F)cc3)cnc2c1O
32 | 186 to 188 °C | CONC(=O)c1cc(C(=O)OC)c2cc(Cc3ccc(F)cc3)cnc2c1O
33 | 258 to 259 °C | COC(=O)c1cc(C(=O)Nc2nccs2)c2cc(Cc3ccc(F)cc3)cnc2c1O
34 | 165 to 167 °C | COCCNC(=O)c1cc(C(=O)OC)c2cc(Cc3ccc(F)cc3)cnc2c1O
35 | 175 to 176 °C | COC(=O)c1cc(C(=O)NCCOC(C)C)c2cc(Cc3ccc(F)cc3)cnc2c1O
36 | 254 to 256 °C | COC(=O)c1cc(CCC(=O)O)c2cc(Cc3ccc(F)cc3)cnc2c1O
37 | 90 to 91 °C | CCN(CCOC)C(=O)c1cc(C(=O)OC)c(O)c2ncc(Cc3ccc(F)cc3)cc12
38 | 192 to 193 °C | C#CCNC(=O)c1cc(C(=O)OC)c(O)c2ncc(Cc3ccc(F)cc3)cc12
39 | 212 to 213 °C | NC(=O)c1cc(C(=O)O)c2cc(Cc3ccc(F)cc3)cnc2c1O
40 | 212 to 213 °C | COC(=O)c1cc(C(=O)NC2CCCCC2)c2cc(Cc3ccc(F)cc3)cnc2c1O
41 | 247 to 248 °C | COC(=O)c1cc(C(=O)NCC(N)=O)c2cc(Cc3ccc(F)cc3)cnc2c1O
42 | 246 to 247 °C | COC(=O)c1cc(C(=O)NCC(=O)O)c2cc(Cc3ccc(F)cc3)cnc2c1O
43 | 170 to 172 °C | COC(=O)c1cc(C(=O)NNCC(=O)N(C)C)c2cc(Cc3ccc(F)cc3)cnc2c1O
44 | 166 to 167 °C | COCCCNC(=O)c1cc(C(=O)OC)c(O)c2ncc(Cc3ccc(F)cc3)cc12
45 | > 250 °C | COC(=O)c1cc(C(=O)NNS(C)(=O)=O)c2cc(Cc3ccc(F)cc3)cnc2c1O
46 | 203 to 205 °C | CNC(=O)c1cc(C(=O)O)c2cc(Cc3ccc(F)cc3)cnc2c1O
47 | 181 to 182 °C | COCC(=O)NNC(=O)c1cc(C(=O)OC)c(O)c2ncc(Cc3ccc(F)cc3)cc12
48 | 204 to 205 °C | COC(=O)c1cc(C(=O)NC(C)(C)CO)c2cc(Cc3ccc(F)cc3)cnc2c1O

More lines, now with the values behind:

Row | Compound | melting point
49 | COC(=O)c1cc(-c2ccccc2C=O)c2cc(Cc3ccc(F)cc3)cnc2c1O | 73 to 75 °C
50 | COCCC(=O)Nc1cc(C(=O)OC2CCN(C(C)=O)CC2)c(O)c2ncc(Cc3ccc(F)cc3)cc12 | 89 to 90 °C
51 | COC(=O)c1cc(N2CCOCC2)c2cc(Cc3ccc(F)cc3)cnc2c1O | 119 to 120 °C
52 | COC(=O)c1cc(C(=O)NNC(=O)c2ccccc2)c2cc(Cc3ccc(F)cc3)cnc2c1O | 227 to 229 °C
53 | COC(=O)c1cc(C(=O)N2CCC(CO)CC2)c2cc(Cc3ccc(F)cc3)cnc2c1O | 161 to 162 °C
54 | COC(=O)c1cc(C(=O)NCCOc2ccccc2)c2cc(Cc3ccc(F)cc3)cnc2c1O | 194 to 195 °C
55 | COCCNC(=O)c1nc(NS(C)(=O)=O)c2cc(Cc3ccc(F)cc3)cnc2c1O | 241 to 242 °C
56 | COC(=O)CCc1cc(C(=O)OC)c(O)c2c1CC(Cc1ccc(F)cc1)CN2 (centres unmarked) | 140 to 141 °C
57 | COC(=O)c1cc(C(=O)N2COCC2(C)C)c2cc(Cc3ccc(F)cc3)cnc2c1O | 149 to 150 °C
58 | COC(=O)c1cc(-c2ccccc2C(=O)O)c2cc(Cc3ccc(F)cc3)cnc2c1O | 250 to 252 °C
59 | CC(C)NC(=O)c1nc(NS(C)(=O)=O)c2cc(Cc3ccc(F)cc3)cnc2c1O | 167 to 168 °C
60 | COCCOC(=O)c1cc(C(=O)NOC)c(O)c2ncc(Cc3ccc(F)cc3)cc12 | 166 to 168 °C
61 | COCCNC(=O)c1nc(C#CCNS(C)(=O)=O)c2cc(Cc3ccc(F)cc3)cnc2c1O | 198 °C
62 | COC(=O)c1cc(C(=O)[O-])c2cc(Cc3ccc(F)cc3)cnc2c1O.[Na+] | > 208 °C
63 | COC(=O)c1cc(NC(=O)c2ccccc2)c2cc(Cc3ccc(F)cc3)cnc2c1O | 247 to 249 °C
64 | COCCCCC(=O)c1cc(C(=O)O)c2cc(Cc3ccc(F)cc3)cnc2c1O | 216 to 218 °C
65 | CCN(c1cc(C(=O)OC)c(O)c2ncc(Cc3ccc(F)cc3)cc12)S(C)(=O)=O | 149 to 150 °C
66 | COC(=O)c1nc(NS(=O)(=O)NC(=O)OC(C)C)c2cc(Cc3ccc(F)cc3)cnc2c1O | 170 to 172 °C
67 | COCCCC(=O)c1ncc2cc(Cc3ccc(F)cc3)cnc2c1O | 117 to 118 °C
68 | CNC(=S)Nc1cc(C(=O)OC)c(O)c2ncc(Cc3ccc(F)cc3)cc12 | 189 to 191 °C
69 | CCC(=O)c1cc(N2CCCC2=O)c2cc(Cc3ccc(F)cc3)cnc2c1O | 202 to 203 °C

Row | Compound | melting point
70 | COC(=O)c1cc(NC(=O)C(F)(F)F)c2cc(Cc3ccc(F)cc3)cnc2c1O | 191 to 192 °C
71 | CN(C)NC(=O)c1nc(-c2ccc(CO)cc2)c2cc(Cc3ccc(F)cc3)cnc2c1O | 219 to 221 °C
72 | COC(=O)c1cc(NC(=O)c2ccc(Cl)cc2)c2cc(Cc3ccc(F)cc3)cnc2c1O | 253 to 254 °C
73 | COC(=O)c1cc(NC(=O)c2cc(C)on2)c2cc(Cc3ccc(F)cc3)cnc2c1O | 182 to 183 °C
74 | COC(=O)c1cc(N(C=O)C=O)c2cc(Cc3ccc(F)cc3)cnc2c1O | 243 to 245 °C
75 | O=C(NCc1ccc(F)cc1)c1c(O)c2ncc(Cc3ccccc3)cc2[nH]c1=O | > 300 °C
76 | COC(=O)c1cc(NC(=O)c2ccccc2Cl)c2cc(Cc3ccc(F)cc3)cnc2c1O | 230 to 232 °C
77 | COC(=O)c1cc(C#N)c2cc(Cc3ccc(F)cc3)cnc2c1O | 178 to 179 °C
78 | COC(=O)c1nc(NC(=O)Nc2ccccc2)c2cc(Cc3ccc(F)cc3)cnc2c1O | 254 to 255 °C
79 | CC(=O)N1CCC(OC(=O)c2nc(C#CCNS(C)(=O)=O)c3cc(Cc4ccc(F)cc4)cnc3c2O)CC1 | 192 to 193 °C
80 | COC(=O)c1nc(N2CCOC2=O)c2cc(Cc3ccc(F)cc3)cnc2c1O | 256 °C (dec.)
81 | CCC(=O)c1cc(C(=O)O)c2cc(Cc3ccc(F)cc3)cnc2c1O | 235 to 237 °C
82 | COC(=O)c1cc(NCC(C)C)c2cc(Cc3ccc(F)cc3)cnc2c1O | 249 to 251 °C
83 | COC(=O)c1nc(N2CCCCS2(=O)=O)c2cc(Cc3ccccc3)cnc2c1O | 183 to 185 °C and 186 °C
84 | COC(=O)c1nc(C(=O)NS(=O)(=O)c2ccccc2)c2cc(Cc3ccc(F)cc3)cnc2c1O | 228 to 229 °C
85 | COCc1cc(C(=O)OC)c(O)c2ncc(Cc3ccc(F)cc3)cc12 | 110 to 111 °C
86 | O=C1CCc2cc3cc(Cc4ccc(F)cc4)cnc3c(O)c21 | 195 to 197 °C
87 | COC(=O)c1nc(N2C(=O)COCC2=O)c2cc(Cc3ccc(F)cc3)cnc2c1O | 182 to 184 °C
88 | CN(C)NC(=O)c1nc(C#CC2=CCCC2)c2cc(Cc3ccc(F)cc3)cnc2c1O | 206 to 207 °C
89 | COCCCC(=O)c1cc(C(=O)O)c2cc(Cc3ccc(F)cc3)cnc2c1O | 226 to 228 °C
